In brackets after ≈: the same amount, converted by molar mass. Read-outs that look alike come from different tables or passages of the source.
Experiments:
[1] = test system: Enterococcus faecalis (ATCC 29122); test: Antibacterial activity, CFU viability; format: cell-based; conditions: ATCC29122, mean of two determinations, read-out: Mean IC50 ± SD
Description: (§1) Pure standard microbial isolates collected from King Khaled University Hospital were tested in this study, including Enterococcus faecalis (ATCC 29122) as Gram positive bacteria and Escherichia coli (ATCC 25922) and Bacteroides fragilis (ATCC 25285) as Gram negative bacteria. Fresh cultures of each microorganism were grown on nutrient agar plates (Oxoid, UK), of which small inoculums were suspended in 5 mL nutrient broth for bacterial suspension preparation of 0.5MacFarland. Bacterial viability was investigated by estimating the colony-forming unit (CFU) ability of the bacteria incubated at different time intervals without or with appropriate amounts of the compound that were mixed with 2 × 10^7 CFU/mL in sterile BHI broths and were incubated under shaking for 60 min at 37 °C. Samples were serially diluted into sterile BHI broths, streaked onto media agar plates, and incubated for 24 h at 37 °C. The antibacterial potency of tested compounds was expressed as the residual number of CFU with reference to the initial inoculums. […] Ampicillin (1 mg/mL) was used as a positive standard reference.

[2] = test system: Bacteroides fragilis (ATCC 25285); test: Antibacterial activity, CFU viability; format: cell-based; conditions: ATCC25285, mean of two determinations, read-out: Mean IC50 ± SD
Description: as §1

[3] = test system: Escherichia coli (ATCC 25922); test: Antibacterial activity, CFU viability; format: cell-based; conditions: ATCC25922, mean of two determinations, read-out: Mean IC50 ± SD
Description: as §1

[4] = target: purified recombinant human LDHA protein (Homo sapiens, UniProt P00338); test: Lactate dehydrogenase-A (LDHA) inhibition assay, NADH consumption; format: biochemical; conditions: for inhibition at 100 µg/mL / inhibition at 200 µg/mL / IC50: LDHA; for inhibition at 100 µg/mL: read-out: Mean Inhibition % at 100 µg/ml ± SD; for inhibition at 200 µg/mL: read-out: Mean Inhibition % at 200 µg/ml ± SD; for fold by which (6e) is more potent than the labelled compound (LDHA inhibition efficiency): comparator 6e
Description: LDHA inhibition activity was investigated by measuring the amounts of consumed NADH as described by Kim and his group. Briefly, different concentrations of each compound (50, 100, 200, and 300 µg) were incubated in buffer containing 20 mM of HEPES-K+ (pH 7.2), 20 μM of NADH, 2 mM of pyruvate, and 10 ng of purified recombinant human LDHA protein for 10 min. The fluorescence of NADH, which has an excitation wavelength of 340 nm and emission wavelength of 460 nm, was detected using a Spectrofluorometer.

[5] = target: T1, COX-2 (Homo sapiens, UniProt P35354); test: Cyclooxygenase (COX-2) inhibition assay (Cayman kit 701080); format: biochemical; conditions: for inhibition at 100 µg/mL: read-out: Mean Inhibition % at 100 µg/ml ± SD; for inhibition at 200 µg/mL: read-out: Mean Inhibition % at 200 µg/ml ± SD
T1 construct: purchased Cayman Chemical Company 701080
T1 sequence (P35354 18-604): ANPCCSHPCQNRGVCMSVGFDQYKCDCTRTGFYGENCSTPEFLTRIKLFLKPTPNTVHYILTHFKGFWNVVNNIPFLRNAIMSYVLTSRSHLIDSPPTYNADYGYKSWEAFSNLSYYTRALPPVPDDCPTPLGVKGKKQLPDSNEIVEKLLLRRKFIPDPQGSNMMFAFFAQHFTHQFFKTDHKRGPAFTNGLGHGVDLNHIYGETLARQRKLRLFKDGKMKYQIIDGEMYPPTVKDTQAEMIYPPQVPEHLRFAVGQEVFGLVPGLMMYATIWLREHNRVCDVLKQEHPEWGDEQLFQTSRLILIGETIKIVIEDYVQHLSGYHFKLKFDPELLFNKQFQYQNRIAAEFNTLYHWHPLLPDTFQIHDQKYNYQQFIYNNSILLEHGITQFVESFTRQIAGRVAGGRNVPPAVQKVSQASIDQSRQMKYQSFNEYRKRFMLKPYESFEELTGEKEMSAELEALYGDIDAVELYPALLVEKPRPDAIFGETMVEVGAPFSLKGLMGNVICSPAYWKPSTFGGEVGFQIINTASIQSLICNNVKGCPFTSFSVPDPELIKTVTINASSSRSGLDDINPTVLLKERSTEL
Description: The compounds were resuspended in 100% DMSO at a final concentration of 10 mg/mL. […] The inhibitory activity was expressed as the inhibition percentage, which was determined by comparison with a control experiment. IC50 values were deduced from the curves.

[6] = In vitro cytotoxicity assay (LDH release); format: cell-based, human; conditions: human, 200 µg/ml, 24 h
Description: The best-in-class compounds, including (4c), (4d), (6a), (6b), (6d), (6e), and (6g), which were recognized as antimicrobial and enzymatic inhibitors, were further examined for their cytotoxic effects on LoVo and HCT-116 cells of human colon cancer. This was carried out by determining the residual percentages of viable cells after being treated with the compounds at different concentrations (50, 100, 200, and 400 µg/mL), using triton X-100 (at concentration of 0.1%) in the assay medium and the assay as the positive and negative controls, respectively.
Samples were diluted in Dulbecco’s modified Eagles medium, consisting of 10% fetal bovine serum, added to cells grown and cultured for 24 h in a 5% CO2-humidified incubator at 37 °C. Then, the activity of lactate dehydrogenase released from damaged cells was determined in the collected supernatant aliquots using an ELISA end-point assay (Benchmark Plus, Bio-Rad, CA, USA). The 0.1% Triton X-100 in the assay medium and the assay medium only were used as positive and negative controls, respectively. Cell viability, expressed as a relative percentage of the OD values (at 550 nm) for compound-treated cells (final concentration of 200 µg) and the control, is shown as mean ± SD (n = 2).

[7] = HCT-116 colon cancer cells, read-out: Mean % Cell Viability ± SD CRC-HCT-116 cells
[8] = LoVo colon cancer cells, read-out: Mean % Cell Viability ± SD CRC-LoVo cells

CC1(C)S[C@@H]2[C@H](NC(=O)[C@H](N)c3ccccc3)C(=O)N2[C@H]1C(=O)O [Ampicillin, ampicillin, reference compound]
IC50 [1]: 12.8 µg/mL (≈ 36.5 µM) | IC50 [2]: 16.1 µg/mL (≈ 46.2 µM) | IC50 [3]: 20.2 µg/mL (≈ 58 µM)

O=c1[nH]c2ccccc2[nH]c1=O [Compound 1]
IC50 [1]: 20.2 ± 1.06 µg/mL (≈ 125 µM) | IC50 [2]: 19.4 ± 1.48 µg/mL (≈ 119 µM) | IC50 [3]: 25.9 ± 0.778 µg/mL (≈ 159 µM) | inhibition at 100 µg/mL [4]: 33.8 ± 2.55% | inhibition at 200 µg/mL [4]: 68.2% | inhibition at 100 µg/mL [5]: 30.9 ± 2.62% | inhibition at 200 µg/mL [5]: 48.1%

NN=c1[nH]c2ccccc2[nH]c1=O [Compound 2, 3-hydrazineylidene-3,4-dihydro quinoxalin-2(1H)-one]
IC50 [1]: 13.6 ± 0.566 µg/mL (≈ 77.2 µM) | IC50 [2]: 14.5 ± 0.99 µg/mL (≈ 82.3 µM) | IC50 [3]: 13.7 ± 1.34 µg/mL (≈ 77.5 µM) | inhibition at 100 µg/mL [4]: 26.7 ± 1.84% | inhibition at 200 µg/mL [4]: 47.1% | inhibition at 100 µg/mL [5]: 7.55 ± 0.778% | inhibition at 200 µg/mL [5]: 15.4 ± 2.19%

COc1cc(C=NNc2nc3ccccc3[nH]c2=O)cc(Cl)c1O [Compound 4a, 3-[N’-(3-Chloro-4-hydroxy-5-methoxy-benzylidene)-hydrazino]-1H-quinoxalin-2-one]
IC50 [1]: 27 ± 2.83 µg/mL (≈ 78.3 µM) | IC50 [2]: 13.3 ± 0.849 µg/mL (≈ 38.6 µM) | IC50 [3]: 15 ± 0.566 µg/mL (≈ 43.5 µM) | inhibition at 100 µg/mL [4]: 20.3 ± 1.63% | inhibition at 200 µg/mL [4]: 28.2% | inhibition at 100 µg/mL [5]: 4.65 ± 0.495% | inhibition at 200 µg/mL [5]: 12.1%

COc1cc(C=NNc2nc3ccccc3[nH]c2=O)cc(I)c1O [Compound 4b, 3-[N’-(4-Hydroxy-3-iodo-5-methoxy-benzylidene)-hydrazino]-1H-quinoxalin-2-one]
IC50 [1]: 30.3 ± 2.4 µg/mL (≈ 69.5 µM) | IC50 [2]: 40.6 ± 2.33 µg/mL (≈ 93.2 µM) | IC50 [3]: 13.6 ± 0.849 µg/mL (≈ 31.2 µM) | inhibition at 100 µg/mL [4]: 27.4 ± 2.4% | inhibition at 200 µg/mL [4]: 35.4% | inhibition at 100 µg/mL [5]: 12.3 ± 0.919% | inhibition at 200 µg/mL [5]: 21.1%

COc1cc(C=NNc2nc3ccccc3[nH]c2=O)cc([N+](=O)[O-])c1O [Compound 4c, 3-[N’-(4-Hydroxy-3-methoxy-5-nitro-benzylidene)-hydrazino]-1H-quinoxalin-2-one]
viability at 24 h, 200 µg/mL [6, 7]: 77.3 ± 3.25% | viability at 24 h, 200 µg/mL [6, 8]: 72.2 ± 4.45% | IC50 [1]: 9.6 µg/mL (≈ 27 µM) | IC50 [2]: 8.05 ± 0.778 µg/mL (≈ 22.7 µM) | IC50 [3]: 12.7 ± 0.778 µg/mL (≈ 35.6 µM) | inhibition at 100 µg/mL [4]: 40.6 ± 2.33% | inhibition at 200 µg/mL [4]: 64.2% | inhibition at 100 µg/mL [5]: 36.5 ± 3.46% | inhibition at 200 µg/mL [5]: 61.1%

O=C(O)c1ccc(/C=N/Nc2nc3ccccc3[nH]c2=O)cc1 [Compound 4d, 4-[(3-Oxo-3,4-dihydro-quinoxalin-2-yl)-hydrazonomethyl]-benzoic acid]
viability at 24 h, 200 µg/ml [6, 7]: 65.5 ± 3.54% | viability at 24 h, 200 µg/ml [6, 8]: 60 ± 4.24% | IC50 [1]: 10.8 µg/mL (≈ 35 µM) | IC50 [2]: 28.2 ± 1.77 µg/mL (≈ 91.6 µM) | IC50 [3]: 30.6 ± 2.62 µg/mL (≈ 99.1 µM) | IC50 [4]: 362 µM | inhibition at 100 µg/mL [4]: 47.4 ± 3.96% | inhibition at 200 µg/mL [4]: 85% | inhibition at 100 µg/mL [5]: 14.4 ± 0.778% | inhibition at 200 µg/mL [5]: 28.9%

COc1ccc2cc(C=NNc3nc4ccccc4[nH]c3=O)ccc2c1 [Compound 4e, 3-[N’-(6-Methoxy-naphthalen-2-ylmethylene)-hydrazino]-1H-quinoxalin-2-one]
IC50 [1]: 18.2 ± 0.99 µg/mL (≈ 52.8 µM) | IC50 [2]: 27.1 ± 1.84 µg/mL (≈ 78.7 µM) | IC50 [3]: 31.4 ± 1.48 µg/mL (≈ 91.3 µM) | inhibition at 100 µg/mL [4]: 21.1 ± 2.19% | inhibition at 200 µg/mL [4]: 31.2% | inhibition at 100 µg/mL [5]: 30.3 ± 1.84% | inhibition at 200 µg/mL [5]: 54%

Cc1nc2ccc(Cl)cc2c(=O)n1N [Compound 5b]
IC50 [1]: 27.5 ± 2.12 µg/mL (≈ 131 µM) | IC50 [2]: 37 ± 2.83 µg/mL (≈ 176 µM) | IC50 [3]: 13.6 ± 1.48 µg/mL (≈ 64.6 µM) | fold by which (6e) is more potent than the labelled compound (LDHA inhibition efficiency) ([4]; 200 µg/mL): 3.6 fold | inhibition at 100 µg/mL [4]: 11.8 ± 1.06% | inhibition at 200 µg/mL [4]: 21.2% | inhibition at 100 µg/mL [5]: 5.7 ± 0.99% | inhibition at 200 µg/mL [5]: 9.05%

COc1cc2nc(C)n(N=Cc3cc(OC)c(O)c([N+](=O)[O-])c3)c(=O)c2cc1OC [Compound 6a, 3-[(4-Hydroxy-3-methoxy-5-nitro-benzylidene)-amino]-6,7-dimethoxy-2-methyl-3H-quinazolin-4-one]
viability at 24 h, 200 µg/mL [6, 7]: 91.2 ± 3.11% | viability at 24 h, 200 µg/mL [6, 8]: 92.2 ± 2.62% | IC50 [1]: 13.8 ± 0.495 µg/mL (≈ 33.4 µM) | IC50 [2]: 10.9 ± 0.566 µg/mL (≈ 26.3 µM) | IC50 [3]: 7.9 ± 0.849 µg/mL (≈ 19.1 µM) | IC50 [4]: 248 µM | inhibition at 100 µg/mL [4]: 62.5% | inhibition at 200 µg/mL [4]: 89.7% | IC50 [5]: 293 µM | inhibition at 100 µg/mL [5]: 42.9 ± 2.97% | inhibition at 200 µg/mL [5]: 83%

COc1ccc2cc(/C=N/n3c(C)nc4ccc(Cl)cc4c3=O)ccc2c1 [Compound 6c, 6-Chloro-3-oro-3-[(6-methoxy-naphthalen-2-ylmethylene)-amino]-2-methyl-3H-quinazolin-4-one]
IC50 [1]: 20.4 ± 1.2 µg/mL (≈ 54.1 µM) | IC50 [2]: 30.1 ± 0.636 µg/mL (≈ 79.5 µM) | IC50 [3]: 26.9 ± 1.56 µg/mL (≈ 71.2 µM) | fold by which (6e) is more potent than the labelled compound (LDHA inhibition efficiency) ([4]; 200 µg/mL): 3.3 fold | inhibition at 100 µg/mL [4]: 13.3 ± 0.919% | inhibition at 200 µg/mL [4]: 23% | inhibition at 100 µg/mL [5]: 23.8 ± 2.55% | inhibition at 200 µg/mL [5]: 36.9 ± 1.63%

CCc1ccc(/C=N/n2c(C)nc3ccc(Cl)cc3c2=O)s1 [Compound 6f, 6-Chloro-3-oro-3-[(5-ethyl-thiophen-2-ylmethylene)-amino]-2-methyl-3H-quinazolin-4-one]
IC50 [1]: 22.6 ± 0.636 µg/mL (≈ 68 µM) | IC50 [2]: 27.9 ± 1.56 µg/mL (≈ 84.1 µM) | IC50 [3]: 33.4 ± 3.39 µg/mL (≈ 101 µM) | fold by which (6e) is more potent than the labelled compound (LDHA inhibition efficiency) ([4]; 200 µg/mL): 1.9 fold | fold decrease of LDHA inhibition efficiency relative to (6g) ([4]; 200 µg/mL, comparator 6g): 2.2 fold | inhibition at 100 µg/mL [4]: 27.1 ± 1.48% | inhibition at 200 µg/mL [4]: 40% | inhibition at 100 µg/mL [5]: 10 ± 1.41% | inhibition at 200 µg/mL [5]: 20.7%
